# From patent publication US7507734B2, “Pyridazinone derivatives” (Aventis Pharma S.A., priority 2004, dated 2009)
# Target: CDK2/Cyclin E kinase (Homo sapiens, UniProt P24941)
# Assay: CDK2/Cyclin E Flashplate Assay: 96-well format
# Type: biochemical
# Conditions: streptavidin-coated flashplate, biotinylated-Rb peptide substrate 10 μM, 33PγATP/ATP 1 μM, CDK2/Cyclin E 20 nM, 30 minute at 30° C., 1% DMSO
# Description: Functional Measurements for Determination of IC50-Values
# CDK2/Cyclin E Flashplate Assay: 96-Well Format
# A 96-well streptavidin-coated flashplate is used to assay potency of compounds according formula (I) against CDK2/Cyclin E kinase. To carry out the assay, biotinylated-Rb peptide substrate (Biotin-[…]-OH) is solubilized at 1 mM in kinase buffer (Hepes 50 mM, NaCI 1 mM, MgCI2 5mM pH 7.5) as a stock solution conserved at −20° C. in aliquots of 110 μl. The day of the experiment, an aliquot of this solution is thawed and diluted to 14.3 μM in kinase buffer, containing 1 mM dithithreitol (DTT) added in the buffer extemporarily.
# 70 μl of this solution is added in each well of the flashplate in order to achieve a final concentration of 10 μM (100 μl reactionnal volume). Serial dilutions of inhibitors are prepared in DMSO from 10 mM stock solutions in order to achieve 1000 μM, 333.3 μM, 111.1 μM, 37.03 μM, 12.35 μM, 4.11 μM and 1.37 μM and all rediluted in kinase buffer+DTT in order to achieve 100 μM, 33.3 μM, 11.1 μM, 3.7 μM, 1.24 μM, 0.41 μM and 0.14 μM in DMSO 10% buffer (vol/vol). 10 μl of each of these solutions (or 10 μl of buffer+DTT for controls) are transferred to the testplate wells in order to achieve 10 μM, 3.33 μM, 1.11 μM, 0.37 μM, 0.12 μM, 0.04 μM and 0.01 μM as final concentrations, 1% DMSO (vol/vol). In each well, 10 μl of a solution of a mix of ^33PγATP/ATP are added in order to achieve 1 μM final concentration and a total of 1 μCi. The kinase reaction is initiated by addition of 10 μl of a solution at 200 nM of CDK2/Cyclin E in kinase buffer+DTT (or buffer+DTT for blanks) in order to achieve 20 nM final concentration. After addition of each reagent, the test-plate is shaken. The plates are incubated 30 minute at 30° C. with a shaking at 650 rpm. At the end of the incubation, the plates are washed 3 times with 300 μl of PBS (without calcium and magnesium) per well. The incorporation of ^33P to the peptide is measured by scintillation counting.
row,IC50 [nM],SMILES
1,26,"Cc1ccc2[nH]c(-c3cc(-c4ccncc4)n[nH]c3=O)cc2c1 [Example 14, 4-(5-Methyl-1H-indol-2-yl)-6-pyridin-4-yl-2H-pyridazin-3-one]"
2,48,"O=c1[nH]nc(-c2ccncc2)cc1-c1cc2ccc(OCc3ccccc3)cc2[nH]1 [Example 23, 4-(6-Benzyloxy-1H-indol-2-yl)-6-pyridin-4-yl-2H-pyridazin-3-one]"
3,35,"CN(C)CCCOc1ccc2[nH]c(-c3cc(-c4ccncc4)n[nH]c3=O)cc2c1 [Example 30, 4-[5-(3-Dimethylamino-propoxy)-1H-indol-2-yl]-6-pyridin-4-yl-2H-pyridazin-3-one]"
4,20,"CCN(CC)CCOc1ccc2cc(-c3cc(-c4ccncc4)n[nH]c3=O)[nH]c2c1 [Example 20, 4-[6-(2-Diethylamino-ethoxy)-1H-indol-2-yl]-6-pyridin-4-yl-2H-pyridazin-3-one]"
5,33,"O=c1[nH]nc(-c2ccc(O)cc2)cc1-c1cc2ccccc2[nH]1 [Example 2, 6-(4-Hydroxy-phenyl)-4-(1H-indol-2-yl)-2H-pyridazin-3-one]"
